Values of other authors in patent publication US20110045130A1, “BIOACTIVE PEPTIDE PRODUCTION” (priority 2007, published 2011).

Columns and labels:
[1] = test system: spontaneously hypertensive rats; details: tripeptides derived from lactic acid bacteria fermented milk
[2] = biological target: angiotensin converting enzyme (ACE) (Homo sapiens, UniProt P12821); details: in vitro effect on ACE activity; relatively low IC50 values
Chain of angiotensin converting enzyme (ACE) (P12821 30-1306, species assumed): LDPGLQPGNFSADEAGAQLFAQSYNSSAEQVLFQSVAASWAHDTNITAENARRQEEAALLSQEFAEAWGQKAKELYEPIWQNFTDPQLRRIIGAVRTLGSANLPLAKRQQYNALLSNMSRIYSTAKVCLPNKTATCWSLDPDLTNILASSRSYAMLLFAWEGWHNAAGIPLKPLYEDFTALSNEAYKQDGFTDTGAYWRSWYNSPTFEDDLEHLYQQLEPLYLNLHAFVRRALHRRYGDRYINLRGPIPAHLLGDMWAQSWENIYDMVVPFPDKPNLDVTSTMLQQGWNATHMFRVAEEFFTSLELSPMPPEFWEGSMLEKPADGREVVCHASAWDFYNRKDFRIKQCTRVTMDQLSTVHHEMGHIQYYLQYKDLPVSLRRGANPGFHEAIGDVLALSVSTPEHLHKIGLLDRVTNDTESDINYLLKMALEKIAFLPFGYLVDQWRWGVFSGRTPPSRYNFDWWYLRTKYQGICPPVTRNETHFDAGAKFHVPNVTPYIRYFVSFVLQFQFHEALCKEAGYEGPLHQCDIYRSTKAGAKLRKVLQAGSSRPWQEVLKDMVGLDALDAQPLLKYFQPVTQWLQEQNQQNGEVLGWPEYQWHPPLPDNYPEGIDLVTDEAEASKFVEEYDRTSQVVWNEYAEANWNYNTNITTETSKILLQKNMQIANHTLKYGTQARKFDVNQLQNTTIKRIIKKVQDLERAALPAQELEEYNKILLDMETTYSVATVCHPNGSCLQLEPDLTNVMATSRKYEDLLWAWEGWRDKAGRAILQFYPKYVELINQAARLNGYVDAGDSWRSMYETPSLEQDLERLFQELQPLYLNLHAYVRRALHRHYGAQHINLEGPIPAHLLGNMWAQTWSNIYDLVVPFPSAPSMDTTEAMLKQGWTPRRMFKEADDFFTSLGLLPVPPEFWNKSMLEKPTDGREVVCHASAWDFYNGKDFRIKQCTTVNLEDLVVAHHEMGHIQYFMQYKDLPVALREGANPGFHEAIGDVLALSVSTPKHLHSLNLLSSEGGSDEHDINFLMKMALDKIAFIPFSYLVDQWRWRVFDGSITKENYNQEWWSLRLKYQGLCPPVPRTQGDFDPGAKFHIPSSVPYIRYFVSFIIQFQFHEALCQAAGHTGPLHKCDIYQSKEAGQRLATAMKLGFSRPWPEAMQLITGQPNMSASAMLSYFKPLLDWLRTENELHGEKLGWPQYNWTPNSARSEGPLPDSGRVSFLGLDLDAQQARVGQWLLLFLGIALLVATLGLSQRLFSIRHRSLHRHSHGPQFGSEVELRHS

ACE inhibiting activity [2]	Substance	antihypertensive effects [1]
Strong ACE inhibiting activities	Ile-Pro-Pro [IPP]	confirmed
Strong ACE inhibiting activities	Leu-Pro-Pro [LPP]	

Substance	ACE inhibiting activity [2]	antihypertensive effects [1]
Val-Pro-Pro [VPP]	Strong ACE inhibiting activities	confirmed
